The values that follow come from patent US20260001864A1, “COMPOUND CONTAINING SULFAMIDE STRUCTURE, AND PREPARATION METHOD THEREFOR AND APPLICATION THEREOF, AND PHARMACEUTICAL COMPOSITION AND APPLICATION” (Nanjing Shuohui Pharmatechnology Co., Ltd, priority 2021, published 2026).

SMILES strings stand for the structures. Read-outs that look alike come from different tables or passages of the source.

Data set [1] addresses H+/K+-ATPase (rabbit gastric mucosal microsomes) (Oryctolagus cuniculus (Rabbit), UniProt P27112). The data set is described as follows: In vitro screening test of H+/K+-ATPase inhibition (malachite green). The class given is biochemical. The note with it: pH 6.5, 37° C. 30 min, read-out: IC50, inhibitory effect on H+/K+-ATPase activity.
The nature of data set [2]: Rat tissue distribution test (oral, LC-MS-MS). The class given is in vivo. The note with it: for Exposure level (0-4 h): male SD rats, oral 4 mg/kg; for Kp: male, SD, rat, plasma set to 1, oral 4 mg/kg, read-out: Ratio of exposure level. The method, then:
Three healthy male SD rats (body weight range 220-250 g, Zhejiang Charles River) were taken and assigned into one group (n=3). Compound 48, Compound A9 or comparison compound Vonoprazan were administered orally at a dose of 4 mg/kg.
Solvent for preparing pharmaceutical preparations: Pure water. The rats were fasted 4 h prior to the administration. […] The tissue was homogenized, and the corresponding blank tissue was used for preparation of a calibration curve and QC quantification. Blood samples should be centrifuged to extract plasma within 1 hour of collection and kept on crushed ice prior to the centrifugation. Plasma samples obtained by centrifugation were stored in a freezer until analysis. Centrifugation conditions: 4-10° C., 8000 rpm, 6 min. The concentration of the sample was determined by LC-MS-MS (MS03: Shimadzu LC30AD and API 4000)), and the exposure data were calculated by WINNOLIN software.

Data set [3] deals with histamine-induced gastric acid secretion. The data set is described as follows: Inhibition of histamine-induced gastric acid secretion in rats (pylorus ligation). The following applies: SD rats, total acid over 3 h after histamine. The class given is in vivo, rat. The method, then:
70 SPF-level SD rats with a weight of 180-220 g (Hangzhou Medical College (produced)), randomly grouped by weight, including negative control groups (isovolumetric saline) and model control groups (isovolumetric saline), and compounds obtained in the foregoing preparation examples of the present invention (i.e., compounds or compound hydrochlorides) (2 mg/kg or 4 mg/kg), 10 rats each group, including 5 males and 5 females. The rats were fasted, but were allowed to drink water for 24 h. After 24 h, the rats were given the compound at 1 ml/100 g by gavage, once in each group, and the rats in the negative control groups and the model groups were given an equal volume of saline by gavage. After that, the rats were anesthetized with chloral hydrate 300 mg/kg (1 ml/100 g) and fixed on a rat plate, and the abdominal wall was incised along the abdominal midline from the subxiphoid process of the sternum, and the incision was approximately 2-3 cm and was made on the left costal margin, and the stomach was exposed to the incision by gently pushing it with the fingers upwards. The pylorus was ligated with a thread under the pylorus (other neighboring vessels were not ligated), and the abdominal wall incision was sutured. The animals were given histamine dihydrochloride (30 mg/10 ml/kg) subcutaneously after 1 h of gavage of the test compound or saline. After 3 h of histamine administration, the rats were asphyxiated with excess CO2, stomachs were removed, stomach contents were collected and centrifuged at 3000 rpm/min for 10 min, and the acid solution was titrated with 0.1 mol/L NaOH to pH7.0. The total acidity and acid inhibition rate during the 3 h period were calculated.
Acid inhibition rate (%)=(Total acid in the model group−total acid in the test group)/total acid in the model group×100%

Sequence of H+/K+-ATPase (rabbit gastric mucosal microsomes) (P27112 whole entry): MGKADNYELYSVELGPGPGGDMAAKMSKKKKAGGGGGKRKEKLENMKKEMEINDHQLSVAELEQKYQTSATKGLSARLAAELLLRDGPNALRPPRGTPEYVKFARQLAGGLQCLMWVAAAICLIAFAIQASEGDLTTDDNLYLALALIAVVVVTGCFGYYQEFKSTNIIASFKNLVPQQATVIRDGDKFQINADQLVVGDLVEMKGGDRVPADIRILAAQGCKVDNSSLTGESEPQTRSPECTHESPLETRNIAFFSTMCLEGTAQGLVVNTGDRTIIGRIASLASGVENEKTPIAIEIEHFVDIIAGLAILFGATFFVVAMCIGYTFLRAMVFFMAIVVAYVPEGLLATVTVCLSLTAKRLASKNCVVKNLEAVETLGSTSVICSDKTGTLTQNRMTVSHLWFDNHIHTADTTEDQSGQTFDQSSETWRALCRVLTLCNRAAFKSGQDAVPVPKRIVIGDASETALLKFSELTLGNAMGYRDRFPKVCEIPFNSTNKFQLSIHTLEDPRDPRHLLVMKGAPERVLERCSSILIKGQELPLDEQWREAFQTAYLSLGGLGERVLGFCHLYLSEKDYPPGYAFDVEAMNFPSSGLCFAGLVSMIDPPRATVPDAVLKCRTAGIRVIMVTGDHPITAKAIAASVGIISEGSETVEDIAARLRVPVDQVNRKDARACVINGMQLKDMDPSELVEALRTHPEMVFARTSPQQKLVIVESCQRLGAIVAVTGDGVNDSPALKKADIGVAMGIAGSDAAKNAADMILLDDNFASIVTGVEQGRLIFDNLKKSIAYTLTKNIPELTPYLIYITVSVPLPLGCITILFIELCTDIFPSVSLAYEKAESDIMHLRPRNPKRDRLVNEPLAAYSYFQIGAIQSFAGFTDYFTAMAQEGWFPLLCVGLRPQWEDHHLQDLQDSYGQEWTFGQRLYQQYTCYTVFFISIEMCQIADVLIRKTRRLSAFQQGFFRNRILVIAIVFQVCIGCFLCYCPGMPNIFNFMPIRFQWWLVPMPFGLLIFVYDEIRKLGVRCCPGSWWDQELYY
Sequence of H+/K+-ATPase (rabbit gastric mucosal microsomes) (P18597 whole entry partner): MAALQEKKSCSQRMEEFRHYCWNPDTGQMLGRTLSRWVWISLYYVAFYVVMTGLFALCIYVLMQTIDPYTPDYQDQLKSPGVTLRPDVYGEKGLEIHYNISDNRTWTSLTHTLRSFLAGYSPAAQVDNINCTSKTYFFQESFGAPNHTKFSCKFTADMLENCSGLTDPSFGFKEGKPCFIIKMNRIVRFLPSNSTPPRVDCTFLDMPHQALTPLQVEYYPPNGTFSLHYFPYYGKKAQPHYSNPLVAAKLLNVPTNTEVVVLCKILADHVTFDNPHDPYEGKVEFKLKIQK

Regarding `CNCc1cn(S(=O)(=O)c2cccnc2)c(-c2ccc(OCC3CC3)cc2F)c1OC` [Compound 48, 1-(5-(4-(cyclopropylmethoxy)-2-fluorophenyl)-4-methoxy-1-(pyridin-3-ylsulfonyl)-1H-pyrrolo-3-yl)-N-methylmethylamine], in data set [1], the IC50 is 0.036 µM. Besides, the “Exposure level (0-4 h)” value was determined as 7585.5 ng·h/mL in data set [2] (liver), 85.8 ng·h/mL in data set [2] (plasma) and 14693.7 ng·h/mL in data set [2] (stomach). Moreover, the Kp in data set [2] (liver) was 88.4; in data set [2] (plasma) it was 1; in data set [2] (stomach) it was 171. Also, the results for the Acid inhibition rate in data set [3] (2 mg/kg by gavage) and in data set [3] (4 mg/kg by gavage) were 75% and 86%, respectively.
